Measurements: article PMC10974995 (Pathogens, 2024)
In brackets after ≈: the same amount, converted by molar mass. Where two headings read alike, the source gives them in different places.

Tests used:
[1] = test system: PK-15 (porcine kidney epithelial cells) and/or FFL (feline fetus lung cells)
[2] = test system: boar sperm
[3] = test system: PK-15 (porcine kidney epithelial cells) and/or FFL (feline fetus lung cells); test: cells; settings: Sus scrofa
[4] = test system: boar sperm; test: cells
[5] = test system: Rat; settings: po; cited from earlier work
[6] = test system: differentiated PK-15 cells
[7] = test system: Fish; settings: cited from earlier work
[8] = PK-15, 48 h, read-out: EC50 In Vitro ICP 2d
[9] = 72 h, read-out: EC50 Ex Vivo BSMI 1–3d

| Compound | In Vitro ICP 2d, toxic (+) / nontoxic (−), microbial metabolites [1] | Ex Vivo BSMI 1–3d, toxic (+) / nontoxic (−), microbial metabolites ([2]; pig (boar)) | EC50 [3, 8] [µg/mL] | EC50 [4, 9] [µg/mL] | In Vivo (toxicity to experimental animals), mycotoxins and fungal metabolites [5] | Toxicity In Vivo LD50 Rat p.o. [5] | EC50 In Vitro ICP 2d [1] | EC50 Ex Vivo BSMI 1–3d [2] | also measured |
| --- | --- | --- | --- | --- | --- | --- | --- | --- | --- |
| CC1(C)C=Cc2c(ccc3c2[N+]([O-])=C2C3=C[C@@]34NC(=O)[C@]5(CCCN5C3=O)C[C@H]4C2(C)C)O1 [Avrainvillamide] | (+) 0.2 (key: (+): For the microbial metabolites, EC50 < 5 µg mL^−1 and <10 µg mL^−1 were considered as toxic in the BSMI and ICP assays, respectively; nontoxic as (−)) | (+) 0.2 (key: (+): For the microbial metabolites, EC50 < 5 µg mL^−1 and <10 µg mL^−1 were considered as toxic in the BSMI and ICP assays, respectively; nontoxic as (−)) | 0.2 (≈ 0.449 µM) | 0.2 (≈ 0.449 µM) |  |  |  |  |  |
| C/C1=C\[C@@H](C)C/C=C/[C@H]2[C@@H]3O[C@]3(C)[C@@H](C)[C@H]3[C@H](Cc4c[nH]c5ccccc45)NC(=O)[C@]32C(=O)/C=C/C(=O)[C@@H]1O [Chaetoglobosin A] | (+) 3 (key: (+): For the microbial metabolites, EC50 < 5 µg mL^−1 and <10 µg mL^−1 were considered as toxic in the BSMI and ICP assays, respectively; nontoxic as (−)) | (+) <1 (key: (+): For the microbial metabolites, EC50 < 5 µg mL^−1 and <10 µg mL^−1 were considered as toxic in the BSMI and ICP assays, respectively; nontoxic as (−)) | 3 (≈ 5.67 µM) | < 1 | + (key: LD50 rat p.o. <1000 mg kg ^–1 Classified as Toxic in vivo +.) | >400 mg/kg |  |  |  |
| CC1=C2C(=CO[C@H](C)[C@H]2C)C(O)=C(C(=O)O)C1=O [Citrinin] | (+) 10 (key: (+): For the microbial metabolites, EC50 < 5 µg mL^−1 and <10 µg mL^−1 were considered as toxic in the BSMI and ICP assays, respectively; nontoxic as (−)) | (−) 20 | 10 (≈ 40 µM) | 20 (≈ 79.9 µM) | + (key: LD50 rat p.o. <1000 mg kg ^–1 Classified as Toxic in vivo +.) | 105 mg/kg |  |  | EC50 ([3]; PK-15, read-out: EC50 In Vitro ICP, positive controls, mean of 10 or 11 measurements): 13 µg/mL (≈ 51.9 µM); EC50 ([4]; read-out: EC50 Ex Vivo BSMI, positive controls, mean of 10 or 11 measurements): ≥ 20 µg/mL |
| O=c1cc(O)c1=O [Moniliformin] | (−) >20 |  |  |  | + (key: LD50 rat p.o. <1000 mg kg ^–1 Classified as Toxic in vivo +.) | 50 mg/kg | (−) >20 μg mL^–1 | (+) 2 μg mL^–1 | Ex Vivo BSMI 1–3d, toxic (+) / nontoxic (−), microbial metabolites [2]: (+) 2 (key: (+): For the microbial metabolites, EC50 < 5 µg mL^−1 and <10 µg mL^−1 were considered as toxic in the BSMI and ICP assays, respectively; nontoxic as (−)); Mitochondrial Toxicity 1d (EC50, acceleration of glycolysis and depolarization of mitochondria) [6]: (+) 2 μg mL^–1 |
| CC(C)=C[C@H]1C[C@H](C)[C@]2(CC[C@]3(C)C[C@H]4[C@H](C(=O)C[C@@]4(C)O)/C(C=O)=C\C[C@H]32)O1 [Ophiobolin, Ophiobolin A] | (+) 0.1 (key: (+): For the microbial metabolites, EC50 < 5 µg mL^−1 and <10 µg mL^−1 were considered as toxic in the BSMI and ICP assays, respectively; nontoxic as (−)) | (+) 0.3 (key: (+): For the microbial metabolites, EC50 < 5 µg mL^−1 and <10 µg mL^−1 were considered as toxic in the BSMI and ICP assays, respectively; nontoxic as (−)) | 0.1 (≈ 0.25 µM) | 0.3 (≈ 0.749 µM) | + (key: LD50 rat p.o. <1000 mg kg ^–1 Classified as Toxic in vivo +.) | 238 mg/kg |  |  |  |
| CCCCCCCCCCCCOS(=O)(=O)[O-].[Na+] [SDS, Sodium dodecyl sulfate] |  |  |  |  |  | 1288 mg/kg | (−) 120 μg mL^–1 | (+) 10 μg mL^–1 | In Vitro ICP 2d, toxic (+) / nontoxic (−), xenobiotic chemicals [1]: (−) 120; Ex Vivo BSMI 1–3d, toxic (+) / nontoxic (−), xenobiotic chemicals [2]: (+) 10 (key: (+): For the xenobiotic chemicals, EC50 values < 10 µg mL^−1 and <20 µg mL^−1 were considered as toxic in the BSMI assay and in the ICP assay, respectively; nontoxic as (−)); In Vivo (toxicity to experimental animals), xenobiotic chemicals [7]: + (key: LD50 Fish Inhaled <10 μg mL ^–1 = Toxic in vivo Marked as +.); Toxicity In Vivo LD50 Fish [7]: 30 mg/L |
| CC1(C)C=Cc2c(ccc3c2[N+]([O-])=C2C(C)(C)[C@@H]4CC56CCCN5C(=O)[C@]4(NC6=O)[C@H]4N5C(=O)[C@@]67CCCN6C(=O)[C@@]56[C@H](c5c(n(O)c8c9c(ccc58)OC(C)(C)C=C9)C(C)(C)[C@@H]6C7)[C@]234)O1 [Stephacidin B] |  |  |  |  |  |  | (++) 0.3 μg mL^–1 | (+) 0.3 μg mL^–1 | Ex Vivo BSMI 1–3d, toxic (+) / nontoxic (−), microbial metabolites [2]: (+) 0.3 (key: (+): For the microbial metabolites, EC50 < 5 µg mL^−1 and <10 µg mL^−1 were considered as toxic in the BSMI and ICP assays, respectively; nontoxic as (−)) |
| COc1cc2c(c3oc4cccc(O)c4c(=O)c13)[C@@H]1C=CO[C@@H]1O2 [Sterigmatocystin] | (+) 0.1 (key: (+): For the microbial metabolites, EC50 < 5 µg mL^−1 and <10 µg mL^−1 were considered as toxic in the BSMI and ICP assays, respectively; nontoxic as (−)) | (−)>20 |  |  | + (key: LD50 rat p.o. <1000 mg kg ^–1 Classified as Toxic in vivo +.) |  | (+) 0.1 μg mL^–1 | (−)>20 μg mL^–1 |  |
| CC(C)[C@@H]1NC(=O)[C@H](C)OC(=O)[C@@H](C(C)C)NC(=O)[C@@H](C(C)C)OC(=O)[C@H](C(C)C)NC(=O)[C@H](C)OC(=O)[C@@H](C(C)C)NC(=O)[C@@H](C(C)C)OC(=O)[C@H](C(C)C)NC(=O)[C@H](C)OC(=O)[C@@H](C(C)C)NC(=O)[C@@H](C(C)C)OC1=O [Valinomycin] |  |  |  |  |  | 4 mg/kg |  |  |  |
| Acrebol | (−) >10 |  |  |  |  |  | (−) >10 μg mL^–1 | (+) 0.1 μg mL^–1 | Ex Vivo BSMI 1–3d, toxic (+) / nontoxic (−), microbial metabolites [2]: (+) 0.1 (key: (+): For the microbial metabolites, EC50 < 5 µg mL^−1 and <10 µg mL^−1 were considered as toxic in the BSMI and ICP assays, respectively; nontoxic as (−)); Mitochondrial Toxicity 1d (EC50, acceleration of glycolysis and depolarization of mitochondria) [6]: (+) 0.1 μg mL^–1 |
| Polyethylene glycol sorbitan mono oleate [Tween 80] |  |  |  |  |  | >25,000 mg kg^−1 |  | (+) 10 μg mL^–1 | In Vitro ICP 2d, toxic (+) / nontoxic (−), xenobiotic chemicals [1]: (−) 500; Ex Vivo BSMI 1–3d, toxic (+) / nontoxic (−), xenobiotic chemicals [2]: (+) 10 (key: (+): For the xenobiotic chemicals, EC50 values < 10 µg mL^−1 and <20 µg mL^−1 were considered as toxic in the BSMI assay and in the ICP assay, respectively; nontoxic as (−)); Response in the BSMI assay [2]: weak positive response; In Vivo (toxicity to experimental animals), xenobiotic chemicals [7]: − |
| Polyethyleneglycol-p-is-octylphenyl ether [Triton X –100] |  |  |  |  |  | 500 mg/kg | (−) 30 μg mL^–1 | (+) 1 μg mL^–1 | In Vitro ICP 2d, toxic (+) / nontoxic (−), xenobiotic chemicals [1]: (−) 30; Ex Vivo BSMI 1–3d, toxic (+) / nontoxic (−), xenobiotic chemicals [2]: (+) 1 (key: (+): For the xenobiotic chemicals, EC50 values < 10 µg mL^−1 and <20 µg mL^−1 were considered as toxic in the BSMI assay and in the ICP assay, respectively; nontoxic as (−)); In Vivo (toxicity to experimental animals), xenobiotic chemicals [7]: + (key: LD50 Fish Inhaled <10 μg mL ^–1 = Toxic in vivo Marked as +.); Toxicity In Vivo LD50 Fish [7]: 5 mg/L |
